The numbers were not newly measured in patent US20180136238A1 (priority 2016, published 2018), which cites them from elsewhere.

The conditions of data set [1]: in vivo.
The mark [2] stands for this setting: blood, equilibrium of bicarbonate complex with protein bound uranyl ions.

Like-named read-outs stand apart in the source and are kept apart here.

Take `[CH3][Hg][CH3]` [dimethyl mercury]: the LD50 dose in data set [1] was 0.015 mg/kg.

Consider `[Hg+2].[S-2]` [mercuric sulfide], for which the LD50 dose in data set [1] was ~100,000.0 mg/kg.

For `[U]` [uranium], under setting [2], the “uranium in blood bicarbonate-formed” value is 60% and the “uranium in blood protein-formed” value is given as 40%. Besides, for the setting “other studies”, the “uranium in blood associated with red blood cells” value is 20%, the “uranium in blood present in the inorganic compartment of plasma” value is given as 74% and the “uranium in blood protein-formed” value is given as 32%.

Turning to arsenic, in data set [1], the LD50 dose is reported as 14 mg/kg.
